Laboratory results: PubChem BioAssay AID504726 (Broad Institute, 2011)
“And” between values parts separate entries of the source, which are not always exact repeats. Identical values can stand only once. The source made the active and inactive calls.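 The calls were made as follows: active = fitted half-maximal concentration for a cytotoxic signal drop no higher than ten times the top valid dose tested; inconclusive = flat curve between -70 and -30 percent, or an unreliable fit; inactive = flat within 30 percent, signal rise, or potency beyond limit.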

What was measured:
[1] = viability loss in HeLa cells – cell-based, 24 h, cherry-picked samples, cytotoxicity control, dose response (AID 504726); details: HeLa viability, CellTiter-Glo ATP luminescence, 24 h; at 35 µM (top of the series);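 as to activity change, negative = cytotoxicity: 0% = DMSO neutral controls and -100% = mitoxantrone positive controls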
[2] = tested on: HeLa viability, CellTiter-Glo ATP luminescence, 24 h; test: as above

For `Cc1c(C)n(CCC(=O)O)c2ccccc12`, the activity change, negative = cytotoxicity [1] was -6.21% (inactive).

For `Nc1ccc2c3c(cccc13)C(=O)N(c1ccccc1)C2=O`, the activity change, negative = cytotoxicity [1] was 19% (inactive).

With `CCN(CC)S(=O)(=O)N1CCN(S(=O)(=O)N2CCOCC2)CC1` the activity change, negative = cytotoxicity [1] was 1.89% (inactive).

In the case of `Cc1c(C#N)c(=O)c(-[n+]2ccccc2)c([S-])n1-c1ccc(Cl)cc1`, the activity change, negative = cytotoxicity [1] was -8.57% (inactive).

With `CC(Oc1ccccc1)c1nnc(N)s1` (configuration not stated) the activity change, negative = cytotoxicity [1] was -3.11% (inactive).

With `Cc1ccsc1/C=N/NC(=O)Cc1ccc(Cl)cc1` the activity change, negative = cytotoxicity [1] was 1.7% (inactive).

In the case of `CN(C)c1ccc(/C=N/N(CCO)C2=NS(=O)(=O)c3ccccc32)cc1`, the activity change, negative = cytotoxicity [1] was -6.62% (inactive).

In the case of `O=C1CN=C(Nc2ccccc2Cl)N1Cc1ccc2c(c1)OCO2`, the activity change, negative = cytotoxicity [1] was -6.04% (inactive).

For `Cc1[nH][nH]c(=O)c1C(c1ccc(-c2ccc(Cl)c(C(=O)O)c2)o1)c1c(C)[nH][nH]c1=O`, the activity change, negative = cytotoxicity [1] was -3.88% (inactive).

For `Nc1ccc2ccc3cccc[n+]3c2c1`, the activity change, negative = cytotoxicity [1] was -15.1% (inactive).

With `O=C(CCN1C(=O)/C(=C/c2ccco2)SC1=S)Nc1ccc(C(=O)O)c(O)c1` the activity change, negative = cytotoxicity [1] was 2.73% (inactive).

With `Nc1ccc(-c2c3ccc(=O)cc-3oc3cc(O)ccc23)cc1C(=O)O` the activity change, negative = cytotoxicity [1] was -1.65% (inactive).

For `COc1ccccc1CNC(=O)CCS(=O)(=O)c1cccs1`, the activity change, negative = cytotoxicity [1] was 4.31% (inactive).

With `CCOc1ccc(-n2c(Cc3cc(=O)[nH]c(=O)[nH]3)nnc2SCc2cccnc2)cc1` the activity change, negative = cytotoxicity [1] was -1.5% (inactive).

In the case of `CCOC(=O)C1CCCN(C(=O)C2c3ccccc3Oc3ccccc32)C1` (configuration not stated), the activity change, negative = cytotoxicity [1] was -6.62% (inactive).

In the case of `CC[C@H](C)[C@H](NC(N)=O)C(=O)Nc1ccc(NC(C)=O)cc1`, the activity change, negative = cytotoxicity [1] was 6.72% (inactive).

With `CCc1ccc[n+](-c2[nH]c(=O)sc2/C=N/NC([S-])=Nc2ccccc2)c1` the activity change, negative = cytotoxicity [1] was -14.2% (inactive).

For `CCCCn1c(N)c(N(CCOC)C(=O)c2cc(C)oc2C)c(=O)[nH]c1=O`, the activity change, negative = cytotoxicity [1] was -6.37% (inactive).

In the case of `Fc1ccc(C2=CC(c3ccc(Br)o3)n3ncnc3N2)cc1` (configuration not stated), the activity change, negative = cytotoxicity [1] was -14.5% (inactive).

In the case of `O=C(O)C(c1ccccc1)N1C(=O)/C(=C\c2ccc(-c3cccc(Cl)c3)o2)SC1=S` (configuration not stated), the activity change, negative = cytotoxicity [1] was -2.5% (inactive).

In the case of `COC(=O)c1c(C)oc2ccc(N(C(C)=O)S(=O)(=O)c3ccccc3)cc12`, the activity change, negative = cytotoxicity [1] was 1.25% (inactive).

With `O=C(O)C(Cc1ccccc1)N1C(=O)/C(=C/C=C/c2ccco2)SC1=S` (configuration not stated) the activity change, negative = cytotoxicity [1] was -11.4% (inactive).

In the case of `CCOC(=O)C1Nc2ccccc2C2C(O)C(O)CC12` (configuration not stated), the activity change, negative = cytotoxicity [1] was 7.37% (inactive).

In the case of `Cc1ccccc1NC(=O)CN1C(=O)N/C(=C\c2cccn2-c2cccc(C(=O)O)c2)C1=O`, the activity change, negative = cytotoxicity [1] was -8.21% (inactive).

With `COc1ccc(NC(=O)Cc2nnc(SCC(=O)Nc3nccs3)n2C)cc1` the activity change, negative = cytotoxicity [1] was 5.46% (inactive).

With `CCOC(=O)N1CCN(C(=S)NC(=O)c2cccc(OC)c2)CC1` the activity change, negative = cytotoxicity [1] was -2.14% (inactive).

In the case of `CC(Sc1nc(-c2ccco2)nc2c1c(=O)n(C)c(=O)n2C)C(=O)O` (configuration not stated), the activity change, negative = cytotoxicity [1] was -11% (inactive).

With `O=C(O)/C=C/C(=O)Nc1ccc(Cc2ccc(NC(=O)/C=C/C(=O)O)cc2)cc1` the activity change, negative = cytotoxicity [1] was 6.62% (inactive).

With `Cc1cnc(NC(=O)Cc2c[nH]c3ccccc23)s1` the activity change, negative = cytotoxicity [1] was -3.77% (inactive).

In the case of `CC1=NN(c2cccc(C(=O)O)c2)C(=O)/C1=C\C=C\c1ccco1`, the activity change, negative = cytotoxicity [1] was -5.55% (inactive).

For `Cc1noc(C)c1C(=O)N1CCN(c2ccc(OCc3ccccc3)cc2)CC1`, the activity change, negative = cytotoxicity [1] was -3.67% (inactive).

With `CSCCC(NC(=O)c1ccccc1Cl)C(=O)N1CCCC(C)C1` (configuration not stated) the activity change, negative = cytotoxicity [1] was -15.7% (inactive).

With `COc1ccc(NS(=O)(=O)c2cccc3ccccc23)cc1` the activity change, negative = cytotoxicity [1] was -7.48% (inactive).

In the case of `O=C(NC1(O)C(=O)c2ccccc2C1=O)c1c(Cl)cccc1Cl`, the activity change, negative = cytotoxicity [1] was -4.52% (inactive).

For `COc1ccc(OC2CCN(S(=O)(=O)c3ccc(OC)cc3)CC2)cc1`, the activity change, negative = cytotoxicity [1] was -12.1% (inactive).

For `O=C(CSc1nc2ccccc2[nH]1)Nc1cccc(S(=O)(=O)N2CCOCC2)c1`, the activity change, negative = cytotoxicity [1] was 3.94% (inactive).

In the case of `CCC(=O)Oc1ccc2c(c1)O/C(=C\c1ccco1)C2=O`, the activity change, negative = cytotoxicity [1] was 4.02% (inactive).

In the case of `COc1ccc(-c2cnc3n2CCCCC3)cc1`, the activity change, negative = cytotoxicity [1] was 0.279% (inactive).

For `O=C(CN1CC[C@@]2(O)CCCC[C@H]2[C@@H]1c1ccc(F)cc1)NCc1ccco1`, the activity change, negative = cytotoxicity [1] was -5.52% (inactive).

For `Clc1ccc(-c2nnc3sc(-c4ccc(Br)o4)nn23)cc1`, the activity change, negative = cytotoxicity [1] was -3.6% (inactive).

For `CC(C)CN(C(=O)CSc1nncn1C)C1CCS(=O)(=O)C1` (configuration not stated), the activity change, negative = cytotoxicity [1] was 4.85% (inactive).

In the case of `COc1cc(NC(=O)c2ccc(CNc3c(N4CCCC4)c(=O)c3=O)cc2)cc(OC)c1OC`, the activity change, negative = cytotoxicity [1] was -7.17% (inactive).

For `O=C1c2c(O)ccc(O)c2C(=O)c2c(NCCNCCO)ccc(NCCNCCO)c21`, the AC50 [2] was 1.36 µM and 4.08 µM.

For `C=C(C)C(=O)Nc1cccc(C2=NOC3(C2)C[C@@H](C(N)=O)N(C(=O)C2(C)CC2)C3)c1` (some centres not stated), the activity change, negative = cytotoxicity [1] was 1.25% (inactive).

In the case of `C=C1c2cccc(O)c2C(O)=C2C(=O)[C@]3(O)C(O)=C(C(N)=O)C(=O)[C@@H](N(C)C)[C@@H]3[C@@H](O)[C@H]12`, the activity change, negative = cytotoxicity [1] was -2.76% (inactive).

For `CC(C)=C[C@@H]1C[C@H](C)[C@H]2CC[C@H](C)c3c(O[C@@H]4O[C@@H](C)[C@@H](O)[C@@H](O)[C@@H]4O)c(O)c(C)c1c32`, the activity change, negative = cytotoxicity [1] was -5.47% (inactive).

With `Cc1ccc(C)c(N2CCN(C(=O)c3cc4ccccn4n3)CC2)c1` the activity change, negative = cytotoxicity [1] was 3.79% (inactive).
